Measurements: US9809573B2, “Substituted pyridine derivatives useful as GSK-3 inhibitors” (priority 2013, dated 2017)
pIC50: −log10 of the molar value. Where two headings read alike, the source gives them in different places.

Tests used:
[1] = biological target: GSK3β (Homo sapiens, UniProt P49841); assay: GSK3β kinase assay (Caliper LabChip3000, fluoresceinated peptide substrate); assay type: biochemical; details: for IC50: first value of the cell, 250 pM enzyme, 20 uM ATP, 20 hours at room temperature, read-out: GSK3β/α (nM): GSK3β IC50
Outline: (§1)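 Reactions run 20 hours at room temperature, stopped with EDTA. Phosphorylated and unphosphorylated fluoresceinated peptide separated electrophoretically on Caliper LabChip3000. Eleven compound concentrations tested; IC50 by non-linear regression.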

[2] = biological target: GSK3α (Homo sapiens, UniProt P49840); assay: biochemical; details: for IC50: second value of the cell, 250 pM enzyme, 20 uM ATP, 20 hours at room temperature, read-out: GSK3β/α (nM): GSK3α IC50
Outline: as §1

[3] = tested on: pTau; assay: pTau assay (method not described); assay type: cell-based; details: for pIC50: read-out: pTau

GSK3β, sequence (P49841 whole entry, species assumed): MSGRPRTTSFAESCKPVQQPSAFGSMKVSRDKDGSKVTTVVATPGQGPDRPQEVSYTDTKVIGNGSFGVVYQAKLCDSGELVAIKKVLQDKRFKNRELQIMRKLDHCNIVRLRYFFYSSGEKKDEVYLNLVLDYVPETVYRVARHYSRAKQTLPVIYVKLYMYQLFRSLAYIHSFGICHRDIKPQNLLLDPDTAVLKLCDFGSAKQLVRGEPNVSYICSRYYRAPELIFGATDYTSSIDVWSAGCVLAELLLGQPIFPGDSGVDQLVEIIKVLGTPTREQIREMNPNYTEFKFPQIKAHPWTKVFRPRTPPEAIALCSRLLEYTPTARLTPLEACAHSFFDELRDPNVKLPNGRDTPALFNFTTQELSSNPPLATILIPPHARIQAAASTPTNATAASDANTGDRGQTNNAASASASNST
GSK3α, sequence (P49840 whole entry, species assumed): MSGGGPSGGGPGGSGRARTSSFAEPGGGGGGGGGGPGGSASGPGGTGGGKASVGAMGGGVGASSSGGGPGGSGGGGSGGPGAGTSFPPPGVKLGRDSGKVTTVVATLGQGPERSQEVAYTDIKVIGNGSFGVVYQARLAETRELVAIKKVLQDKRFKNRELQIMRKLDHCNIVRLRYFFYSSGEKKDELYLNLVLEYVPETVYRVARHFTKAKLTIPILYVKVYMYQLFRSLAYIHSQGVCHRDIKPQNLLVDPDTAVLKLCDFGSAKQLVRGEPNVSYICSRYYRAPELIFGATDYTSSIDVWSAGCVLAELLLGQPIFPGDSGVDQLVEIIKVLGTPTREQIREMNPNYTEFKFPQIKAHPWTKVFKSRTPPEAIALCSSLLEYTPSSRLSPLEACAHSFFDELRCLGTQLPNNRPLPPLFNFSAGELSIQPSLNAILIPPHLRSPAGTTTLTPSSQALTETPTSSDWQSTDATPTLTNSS

Row | IC50 [1] [nM] | IC50 [2] [nM] | pIC50 [3] | pIC50 [2] | IC50 ([3]; read-out: pTau (nM)) [nM] | Structure (SMILES) | pIC50 [1]
1 | 71 | 49 | 5.36 |  |  | O=C(Nc1cnccc1N1CCC(F)(F)C1)c1ccnc(NC(=O)C2CC2)c1 [Example 83, 2-(Cyclopropanecarboxamido)-N-(4-(3,3-difluoropyrrolidin-1-yl)pyridin-3-yl)isonicotinamide] | 
2 | 2.9 | 0.94 | 7.48 |  |  | N#Cc1ccc(-c2ccncc2NC(=O)c2ccnc(NC(=O)C3CC3)c2)c(F)c1 [Example 85, N-(4-(4-cyano-2-fluorophenyl)pyridin-3-yl)-2-(cyclopropanecarboxamido)isonicotinamide] | 
3 | 54 | 26 | 6.20 |  |  | O=C(Nc1cnccc1-c1cc(Cl)ccc1F)c1ccnc(NC(=O)C2CC2)c1 [Example 86, 2-(Cyclopropanecarboxamido)-N-(4-(2-fluoro-5-chloro-phenyl)pyridin-3-yl)isonicotinamide] | 
4 | 9.1 | 3.9 | 6.77 |  |  | O=C(Nc1c(N2CCOCC2)ccnc1F)c1ccnc(NC(=O)C2CC2)c1 [Example 88, 2-(Cyclopropanecarboxamido)-N-(2-fluoro-4-morpholinopyridin-3-yl)isonicotinamide] | 
5 | 24 | 11 | 6.34 |  |  | CN(C)C(=O)c1ccc(-c2ccncc2NC(=O)c2ccnc(NC(=O)C3CC3)c2)c(F)c1 [Example 92, 2-(Cyclopropanecarboxamido)-N-(4-(4-(dimethylcarbamoyl)-2-fluorophenyl)pyridin-3-yl)isonicotinamide] | 
6 | 13 | 5 | 6.92 |  |  | O=C(Nc1cnccc1-c1ccc(OC(F)(F)F)cc1F)c1ccnc(NC(=O)C2CC2)c1 [Example 94, 2-(Cyclopropanecarboxamido)-N-(4-(2-fluoro-4-(trifluoromethoxy)phenyl)pyridin-3-yl)isonicotinamide] | 
7 | 1.9 | 1.4 | 7.00 |  |  | O=C(Nc1cnccc1-c1cc2ccccc2o1)c1ccnc(NC(=O)C2CC2)c1 [Example 95, N-(4-(benzofuran-2-yl)pyridin-3-yl)-2-(cyclopropanecarboxamido)isonicotinamide] | 
8 | 4.1 | 1.7 | 7.18 |  |  | Cn1c(-c2ccncc2NC(=O)c2ccnc(NC(=O)C3CC3)c2)cc2ccccc21 [Example 96, 2-(Cyclopropanecarboxamido)-N-(4-(1-methyl-1H-indol-2-yl)pyridin-3-yl)isonicotinamide] | 
9 | 1.1 | 8.5 | 6.06 |  |  | CC1(C)CC1C(=O)Nc1cc(C(=O)Nc2cnccc2-c2ccccc2)ccn1 (stereo not drawn) [Example 97, 2-(2,2-Dimethylcyclopropanecarboxamido)-N-(4-phenylpyridin-3-yl)isonicotinamide] | 
10 | 11 | 17 | 5.85 |  |  | O=C(Nc1cnccc1-c1ccccc1)c1ccnc(NC(=O)C2CC2(F)F)c1 (stereo not drawn) [Example 98, 2-(2,2-Difluorocyclopropanecarboxamido)-N-(4-phenylpyridin-3-yl)isonicotinamide] | 
11 | 26 | 7.5 | 6.46 |  |  | CC1CC1C(=O)Nc1cc(C(=O)Nc2cnccc2-c2ccccc2)ccn1 (stereo not drawn) [Example 100, 2-(2-Methylcyclopropanecarboxamido)-N-(4-phenylpyridin-3-yl)isonicotinamide] | 
12 | 30 | 13 | 5.51 |  |  | COC(=O)c1cncc(NC(=O)c2ccnc(NC(=O)C3CC3)c2)c1 [Example 101, Methyl 5-(2-(cyclopropanecarboxamido)isonicotinamido)nicotinate] | 
13 | 197 | 121 | ≤ 5.00 |  |  | O=C(O)c1cncc(NC(=O)c2ccnc(NC(=O)C3CC3)c2)c1 [Example 103, 5-(2-(cyclopropanecarboxamido)isonicotinamido)nicotinic Acid] | 
14 |  |  |  | 8.70 | 270 | O=C(Nc1cncc(-c2ccccc2)c1)c1ccnc(NC(=O)C2CC2)c1 [Example 104, 2-(cyclopropanecarboxamido)-N-(5-phenylpyridin-3-yl)isonicotinamide] | 8.30
15 | 6.5 | 3.6 | 5.16 |  |  | NC(=O)c1cncc(NC(=O)c2ccnc(NC(=O)C3CC3)c2)c1 [Example 105, 5-(2-(cyclopropanecarboxamido)isonicotinamido)nicotinamide] | 
16 | 73 | 11 | 5.25 |  |  | O=C(Nc1cncc(Cc2ccccc2)c1)c1ccnc(NC(=O)C2CC2)c1 [Example 110, N-(5-benzylpyridin-3-yl)-2-(cyclopropanecarboxamido)isonicotinamide] | 
17 | 1.6 | 1.3 | 6.00 |  |  | O=C(Nc1cncc(-c2ccc(F)cc2F)c1)c1ccnc(NC(=O)C2CC2)c1 [Example 114, 2-(cyclopropanecarboxamido)-N-(5-(2,4-difluorophenyl)pyridin-3-yl)isonicotinamide] | 

Row | Structure (SMILES) | IC50 [1] [nM] | IC50 [2] [nM] | pIC50 [3] | pIC50 [2] | IC50 ([3]; read-out: pTau (nM)) [nM] | pIC50 [1]
18 | CC1(C)CN(c2ccncc2NC(=O)c2ccnc(NC(=O)C3CC3)c2)CCO1 [Example 87, 2-(Cyclopropanecarboxamido)-N-(4-(2,2-dimethylmorpholino)pyridin-3-yl)isonicotinamide] |  | 0.39 | 7.60 |  |  | 9.10
19 | CC1(C)COCCN1c1ccncc1NC(=O)c1ccnc(NC(=O)C2CC2)c1 [Example 90, 2-(Cyclopropanecarboxamido)-N-(4-(3,3-dimethylmorpholino)pyridin-3-yl)isonicotinamide] |  | 0.1 | 9.40 |  |  | 9.82
20 | Cc1cncc(NC(=O)c2ccnc(NC(=O)C3CC3)c2)c1 [Example 102, 2-(cyclopropanecarboxamido)-N-(5-methylpyridin-3-yl)isonicotinamide] |  | 5.4 | 6.13 |  |  | 8.02
21 | O=C(Nc1cncc(-c2ccncc2)c1)c1ccnc(NC(=O)C2CC2)c1 [Example 106, N-([3,4′-bipyridin]-5-yl)-2-(cyclopropanecarboxamido)isonicotinamide] |  | 2.5 | 6.49 |  |  | 8.32
22 | O=C(Nc1cncc(Oc2ccccc2)c1)c1ccnc(NC(=O)C2CC2)c1 [Example 107, 2-(cyclopropanecarboxamido)-N-(5-phenoxypyridin-3-yl)isonicotinamide] |  | 9.1 | 5.48 |  |  | 7.72
23 | O=C(Nc1cncc(N2CCCCC2)c1)c1ccnc(NC(=O)C2CC2)c1 [Example 108, 2-(cyclopropanecarboxamido)-N-(5-(piperidin-1-yl)pyridin-3-yl)isonicotinamide] |  | 23 | 5.27 |  |  | 6.89
24 | O=C(Nc1cncc(N2CCOCC2)c1)c1ccnc(NC(=O)C2CC2)c1 [Example 109, 2-(cyclopropanecarboxamido)-N-(5-morpholinopyridin-3-yl)isonicotinamide] |  | 17 | 5.70 |  |  | 7.14
25 | O=C(Nc1cncc(-c2ccc(F)cc2)c1)c1ccnc(NC(=O)C2CC2)c1 [Example 111, 2-(cyclopropanecarboxamido)-N-(5-(4-fluorophenyl)pyridin-3-yl)isonicotinamide] |  | 0.95 | 6.24 |  |  | 8.19
26 | O=C(Nc1cncc(C2CCC2)c1)c1ccnc(NC(=O)C2CC2)c1 [Example 113, N-(5-cyclobutylpyridin-3-yl)-2-(cyclopropanecarboxamido)isonicotinamide] |  | 1.75 | 6.48 |  |  | 9.00
